Measured values: the NIST ThermoML archive (doi:10.1021/je060441j)

Assay: xn = mol fraction of the nth substance listed
Settings: 101 kPa, Liquid

ClC(Cl)Cl [trichloromethane] + CO
mass density [kg/m3]
Settings | 288.15 K | 293.15 K | 298.15 K | 303.15 K | 308.15 K | 313.15 K
x2 = 0 | 1498.08 | 1488.64 | 1479.15 | 1469.61 | 1460.03 | 1450.41
x2 = 0.0298 | 1487.35 | 1477.93 | 1468.46 | 1458.95 | 1449.38 | 1439.8
x2 = 0.0492 | 1480.27 | 1470.88 | 1461.44 | 1451.95 | 1442.4 | 1432.84
x2 = 0.0724 | 1471.76 | 1462.41 | 1453.01 | 1443.55 | 1434.04 | 1424.49
x2 = 0.0942 | 1463.44 | 1454.14 | 1444.79 | 1435.38 | 1425.89 | 1416.4
x2 = 0.1282 | 1450.19 | 1440.98 | 1431.7 | 1422.37 | 1412.96 | 1403.52
x2 = 0.1586 | 1437.96 | 1428.83 | 1419.63 | 1410.37 | 1401.04 | 1391.68
x2 = 0.2444 | 1401.12 | 1392.24 | 1383.3 | 1374.3 | 1365.22 | 1356.1
x2 = 0.2956 | 1377.44 | 1368.73 | 1359.97 | 1351.14 | 1342.24 | 1333.29
x2 = 0.3383 | 1356.51 | 1347.95 | 1339.33 | 1330.66 | 1321.9 | 1313.09
x2 = 0.398 | 1325.26 | 1316.93 | 1308.55 | 1300.11 | 1291.59 | 1283.02
x2 = 0.4393 | 1302.23 | 1294.08 | 1285.87 | 1277.6 | 1269.26 | 1260.88
x2 = 0.4983 | 1267.1 | 1259.22 | 1251.28 | 1243.28 | 1235.22 | 1227.13
x2 = 0.5505 | 1233.39 | 1225.77 | 1218.09 | 1210.35 | 1202.55 | 1194.71
x2 = 0.6022 | 1197.32 | 1190.01 | 1182.62 | 1175.17 | 1167.65 | 1160.08
x2 = 0.6352 | 1172.94 | 1165.78 | 1158.57 | 1151.3 | 1143.98 | 1136.62
x2 = 0.6999 | 1121.29 | 1114.52 | 1107.71 | 1100.84 | 1093.93 | 1086.96
x2 = 0.75 | 1077.55 | 1071.1 | 1064.61 | 1058.07 | 1051.48 | 1044.85
x2 = 0.7996 | 1030.62 | 1024.5 | 1018.34 | 1012.15 | 1005.91 | 999.622
x2 = 0.8193 | 1011.24 | 1005.11 | 998.988 | 992.86 | 986.761 | 980.633
x2 = 0.8534 | 975.44 | 969.692 | 963.915 | 958.1 | 952.24 | 946.342
x2 = 0.91 | 911.539 | 906.188 | 900.813 | 895.41 | 889.975 | 884.513
x2 = 0.93 | 887.399 | 882.191 | 876.963 | 871.71 | 866.422 | 861.11
x2 = 0.9542 | 857.083 | 852.051 | 847 | 841.927 | 836.829 | 831.705
